The values below are quoted from earlier work in patent US12364989B2, “High throughput method and system for analyzing the effects of agents on planaria” (priority 2019, dated 2025).

In one series the test system is planarians. The settings on record: regenerating compared with intact animals.
Series [1] deals with planaria.
Series [2] has as its system planaria. The settings on record: Hagstrom et al., Toxicological Sciences 2015.

With `C[S+](C)[O-]` [DMSO, Dimethyl sulfoxide], the “sensitivity of regenerating planarians” value in the series on planarians is “increased sensitivity”. As to `CN(C)C=O` [N,N-dimethylformamide], in the series with planaria [1] (morphological endpoint, Zhang et al., Toxicological and Industrial Health 2013), the “effect on auricle regeneration” value is “effect”. For the molecule `CCO` [ethanol], the “sensitivity of regenerating planarians” value in the series with planarians was “increased sensitivity”.

For the molecule `CC1(C)C(C=C(Cl)Cl)C1C(=O)OCc1cccc(Oc2ccccc2)c1` (centres unmarked) [permethrin], in the series with planaria [1] (Hagstrom et al., Toxicological Sciences 2015), the eye reappearance entry is given as “did delay”. The blastema growth rate result in the series on planaria [2] is listed as “did not affect”.
